Results: patent publication US20110117120A1, “Plasmodium falciparum HLA class I restricted T-cell epitopes” (priority 2009, published 2011)
Entries after “also recorded” stand apart in the source; their conditions may differ. No end group written: not given here.

What was measured:
Assay type in all cases: cell-based, human
[1] = tested on: CD4+ and CD8+ T cells of PBMC; assay: Intracellular cytokine staining (ICS) of CD4+ and CD8+ T cells; details: for CD8^+ T cell IFN-γ response in ICS: HLA-matched volunteers, FIG. 1 upper panel; for multifunctional CD8^+ T cell responses in ICS: v008 and v012, any two of IFN-γ, IL-2, TNF-α, FIG. 1 lower panel
Procedure: ICS was performed on PBMCs with costimulatory antibodies anti-CD28 and […] (obtained from BD Bioscience™, San Jose, Calif.). The peptides were used at the same concentrations as in ELISpot assays. Stimulants were added t cells and incubated at 37° C. with 5% CO2 for 2 hr. Golgi Plug™ (Brefeldin A) (BD Bioscience™, San Jose, Calif.) was added at a final concentration of 0.6 μL/mL and incubated at 37° C. with 5% CO2 overnight. Cells were stained with anti-CD3 (Alexa Fluor 700™), anti-CD4 (PerCP™), and anti-CD8 Pacific Blue™ (obtained from BD Bioscience™, San Jose, Calif.). and 1 μg/mL of live/dead fixable blue dye, incubated and washed. Cells were permeabilized with Cytofix/Cytoperm™ solution (obtained from BD Bioscience™, San Jose, Calif.), incubated and washed. Cells were stained intracellularly with anti-CD3 ([…]), anti-CD4 (PerCP™), and anti-CD8 Pacific Blue™, anti-IFN-γ FITC, anti-TNF PE, and anti-IL2 APC, incubated and washed. Cells were resuspended and the entire available sample was acquired by flowcytometry. The gating strategy included progressively measuring total cells; viable cells only; lymphocytes; T cells; CD4^+ CD8^+ populations; and a specific cell type expressing a specific cytokine. Histograms were used to determine the total production of IFN-γ, IL2, and TNF for the CD4^+ and CD8^+ populations. Boolean gates were used to determine cells producing combinations of cytokines.
In these studies, T cells containing IFN-γ, IL2, or TNFα, were gated into different subsets: IFN-γ+, IL2+, TNFα−; IFN-γ+, IL2-, TNFα+; IFN-γ+, IL2+, TNFα+; or IFN-γ+, IL2−, TNFα− T cells, and stimulated with the predicted epitopes and their parent peptide pool. The frequency of CD8^+ T cells producing total IFN-γ was far greater than CD4^+ T cell responses (FIG. 1, upper panel), which were extremely low.

PBMC [2] = assay: ELISpot IFN-γ assay with PBMC of Ad5-PfCA immunized volunteers (Example 1); details: threshold 40 SFC/million
Procedure: In order to assess the pools for their ability to induce T-cell responses, specifically CD 8^+ responses, PBMC, 1 month post immunization were used, from the five volunteers in Table 1, in ELISpot assays. In these studies, IFN-γ activity was measured in response to exposure to the peptide pools. The assays were conducted essentially as described by Wang, et al., Proc. Natl. Acad. Sci. (U.S.A.), 98: 10817-22.
(§1) The stimulation of circulating antigen-specific T cell lymphocytes was evaluated by measurement of γ-IFN induction by ELISPOT. The ELISpot assay was conducted using thawed cryopreserved PBMC at 200 K cells per well. Pre-challenge cells were taken at day 21 and day 22 post AdPfCA vaccination. Cells were suspended in […] complete medium and were stimulated with AMA1 peptides suspended in […] of complete medium. Peptide concentrations used in assays was 10 μg/ml of each peptide tested. Cultures were incubated for 36 h at 37° C., 5% CO2. Depending on availability of cells, each PBMC sample was assayed in duplicate, triplicate, or quadruplicate and the number of IFN-γ-secreting cells recognized as spot-forming cells (SFC) was enumerated using an automated ELISpot reader. In duplicate assays, all values were used in analysis. For triplicate or quadruplicate assays, outliers were rejected if any single value contributed more than 50% of the standard deviation of the triplicate (or quadruplicate) and if its value was three-fold greater or less than the average of the remaining two (or three) values. The mean spot forming cells (SFCs) obtained in negative control wells were subtracted from the value of each test well from the same sample. Negative counts generated by this background subtraction were converted to zero. The mean spot number of the test sample was then calculated and expressed as SFC/million PBMCs. Values obtained with pre-vaccinated samples were subtracted from the post-vaccination values.

[3] = tested on: CD8+ or CD4+ T-cell depleted PBMC; assay: ELISpot IFN-γ assay after CD8+ or CD4+ T-cell depletion (Example 2, Table 6); details: for CD4^+ depletion % change / CD8^+ Depletion % change / CD4^+ depletion, test / CD8^+ Depletion, test / CD4^+ depletion, control / CD8^+ Depletion, control: Vol. 1550-11; for CD4^+ depletion, test: CD4+ depleted; for CD8^+ Depletion, test: CD8+ depleted
Procedure: PBMC population depletion was conducted using anti-human CD4+ and anti-CD8^+ coated Dynabeads™ M-450 (Dynal, Great Neck, N.Y.) following the manufacturer's instructions. Mock depletion was done with Dynabeads coated with Sheep anti-mouse IgG. Flow cytometry confirmed that T-cell subset depletions were >99% in all experiments. The data is presented as the % effect (decrease) in activity after T cell subset depletion. […]
The results of this study, summarized in Table 6, identified other CD8^+ epitopes, associated specific HLA class I genes.

PBMC [4] = assay: ELISpot IFN-γ assay with PBMC of AdPfCA / DNA-primed volunteers (Example 2); details: 12 wk post challenge
Text: To more clearly define immunological active regions of AMA1, PBMCs were isolated from AMA1 immunized volunteers. Two groups of volunteers, i.e., Gp 1 (from example 1, above) and Gp2, received 2×10^10 particle units of AdPfCA (NMRC-M3V-Ad-PfCA, NMRC+Multi-antigen Multi-stage, Malaria Vaccine+Adenovector+P. falciparum CSP & AMA1 antigens). The vaccine is a combination of two separate recombinant Ad5 constructs, one expressing full length CSP and the other expressing full length apical membrane antigen 1 (AMA1). AdPfCA expressed the AMA1 regions A1 through A12. Twenty-eight (28) days later, PBMC's were collected.
In a third group (termed preCh in FIG. 7 and FIG. 8), fifteen volunteers were primed with three doses (2 mg/dose) with one month between doses. Sixteen weeks after the final DNA priming dose, each volunteer received 2×10^10 particle units of AdPfCA. PBMC's were collected on day 22-23 after receiving AdPfCA. The region of the AMA gene expressed by the DNA expression plasmid is also illustrated in FIG. 6. The DNA vaccine expressed approximately half of the A1 region of AMA1, the entire regions of A2 through A10 and a portion of A11. As in Gp 1 and Gp 2, AdPfCA expressed the AMA1 regions A1 through A12.
as §1
In a further study, volunteers were immunized with AdCA. […]

NEFPAIDLF (listed as Plasmodium falciparum) [Epitope 2]
CD8^+ T cell IFN-γ response in ICS [1]: equal or more CD8^+ IFN-γ than the parent peptide pool

REHPKEYEYPLHQEH [Ap1-12]
IFN-γ ELISpot activity of individual 15-mer peptide (PBMC [2]; Volunteer 002): 66 SFC/10^6 | IFN-γ ELISpot activity of individual 15-mer peptide (PBMC [2]; Volunteer 005): 118 SFC/10^6 | CD4^+ versus CD8^+ T cell IFN-γ response (ICS and ELISpot depletion, words) ([1]; v001 and v005, FIG. 3): strongly recognized by CD8^+ T cells; also recorded: induced both CD4^+ and CD8^+ T cell responses | CD4^+ depletion % change ([3]; 4 wk post challenge): 78% | CD8^+ Depletion % change ([3]; 4 wk post challenge): 70% | CD4^+ depletion, test ([3]; 4 wk post challenge): 28 SFC/10^6 | CD8^+ Depletion, test ([3]; 4 wk post challenge): 37 SFC/10^6 | CD4^+ depletion, control ([3]; 4 wk post challenge): 126 SFC/10^6 | CD8^+ Depletion, control ([3]; 4 wk post challenge): 126 SFC/10^6 | CD4^+ depletion % change ([3]; Pre-challenge): 59% | CD8^+ Depletion % change ([3]; Pre-challenge): 49% | CD4^+ depletion, test ([3]; Pre-challenge): 67 SFC/10^6 | CD8^+ Depletion, test ([3]; Pre-challenge): 83 SFC/10^6 | CD4^+ depletion, control ([3]; Pre-challenge): 161 SFC/10^6 | CD8^+ Depletion, control ([3]; Pre-challenge): 161 SFC/10^6 | reduction in ELISpot response after depletion of CD8^+ T-cells ([3]; summary of Table 6): 49-66%

KSHGKGYNW (listed as Plasmodium falciparum)
Unfract. PBMC (PBMC [4]; Vol. 1550-10): 159 SFC/10^6 | Unfract. PBMC (PBMC [4]; Vol. 1550-18): 181 SFC/10^6

YKSHGKGYNW (listed as Plasmodium falciparum)
Unfract. PBMC (PBMC [4]; Vol. 1550-10): 144 SFC/10^6 | Unfract. PBMC (PBMC [4]; Vol. 1550-18): 271 SFC/10^6

NEVVVKEEY [Epitope 1, NEVVVKEEY]
CD8^+ T cell IFN-γ response in ICS [1]: equal or more CD8^+ IFN-γ than the parent peptide pool

TLDEMRHFY [Epitope 8]
CD8^+ T cell IFN-γ response in ICS [1]: equal or more CD8^+ IFN-γ than the parent peptide pool

HPKEYEYPL (listed as Plasmodium falciparum) [Epitope 9]
CD8^+ T cell IFN-γ response in ICS [1]: equal or more CD8^+ IFN-γ than the parent peptide pool

ETQKCEIFNV (listed as Plasmodium falciparum) [Epitope 10]
CD8^+ T cell IFN-γ response in ICS [1]: very weak CD8^+ IFN-γ responses | multifunctional CD8^+ T cell responses in ICS [1]: did not appear to induce multifunctional responses

RYKSHGKGY (listed as Plasmodium falciparum) [Epitope 14]
CD8^+ T cell IFN-γ response in ICS [1]: very weak CD8^+ IFN-γ responses | multifunctional CD8^+ T cell responses in ICS [1]: did not appear to induce multifunctional responses
